# Results published in US10131652B2, “Pyrimidinyloxy benzene derivatives as herbicides” (E. I. DU PONT DE NEMOURS AND COMPANY, priority 2014, dated 2018).
# What was measured:
# Type in all cases: in vivo
# [1] = tested on: galium (catchweed bedstraw, Galium aparine); assay: Test D pre-/postemergence plant response
# How it was run: (§1)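 Seeds were planted in a loam and sand blend and sprayed preemergence. In parallel, seedlings grown in peat moss/vermiculite medium were sprayed postemergence at 2 to 18 cm height. Both used a surfactant-containing non-phytotoxic solvent. Greenhouse ratings at 13 to 15 days used a 0–100 control scale.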
# corn (Zea mays) = assay: Test D pre-/postemergence plant response
# How it was run: as §1
# [2] = tested on: Italian ryegrass (Lolium multiflorum); assay: Test D pre-/postemergence plant response
# How it was run: as §1
# [3] = tested on: oilseed rape (Brassica napus); assay: Test D pre-/postemergence plant response
# How it was run: as §1
# [4] = tested on: winter wheat (Triticum aestivum); assay: Test D pre-/postemergence plant response
# How it was run: as §1
# [5] = tested on: velvetleaf (Abutilon theophrasti); assay: Test D pre-/postemergence plant response
# How it was run: as §1
# [6] = tested on: lambsquarters (Chenopodium album); assay: Test D pre-/postemergence plant response
# How it was run: as §1
# [7] = tested on: barnyardgrass (Echinochloa crus-galli); assay: Test C flooded paddy test plant response; details: Flood, 250 g ai/ha; scale of 0 to 100 where 0 is no effect and 100 is complete control; 13 to 15 days
# How it was run: (§2)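 Greenhouse paddy assay, 13–15 days. Treatment into 3 cm floodwater over 2-leaf plants; visual 0–100 rating against controls.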
# [8] = tested on: ducksalad (Heteranthera limosa); assay: Test C flooded paddy test plant response; details: Flood, 250 g ai/ha; scale of 0 to 100 where 0 is no effect and 100 is complete control; 13 to 15 days
# How it was run: as §2
# rice (Oryza sativa) = assay: Test C flooded paddy test plant response; details: Flood, 250 g ai/ha; scale of 0 to 100 where 0 is no effect and 100 is complete control; 13 to 15 days
# How it was run: as §2
# [9] = tested on: small-flower umbrella sedge (Cyperus difformis); assay: Test C flooded paddy test plant response; details: Flood, 250 g ai/ha; scale of 0 to 100 where 0 is no effect and 100 is complete control; 13 to 15 days
# How it was run: as §2
# kochia (Kochia scoparia) = assay: Test B pre-/postemergence plant response
# How it was run: (§3)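 Scoring used a 0–100 scale (100 = complete control) by visual comparison with untreated plants after approximately 10 days in the greenhouse. Compounds, in surfactant-containing non-phytotoxic solvent, were sprayed onto soil at planting or onto 2–10 cm seedlings.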
# [10] = tested on: Italian ryegrass (Lolium multiflorum); assay: Test B pre-/postemergence plant response
# How it was run: as §3
# [11] = tested on: ragweed (common ragweed, Ambrosia elatior); assay: Test B pre-/postemergence plant response
# How it was run: as §3
# [12] = Postemergence, 16 g ai/ha, scale 0 to 100 (0 no effect, 100 complete control)
# [13] = Postemergence, 31 g ai/ha, scale 0 to 100 (0 no effect, 100 complete control)
# [14] = Postemergence, 62 g ai/ha, scale 0 to 100, 0 no effect, 100 complete control
# [15] = Postemergence, 125 g ai/ha, scale 0 to 100, 0 no effect, 100 complete control
# [16] = Preemergence, 16 g ai/ha, scale 0 to 100 (0 no effect, 100 complete control)
# [17] = Preemergence, 31 g ai/ha, scale 0 to 100 (0 no effect, 100 complete control)
# [18] = Preemergence, 62 g ai/ha, scale 0 to 100 (0 no effect, 100 complete control)
# [19] = 31 g ai/ha, Postemergence, 0 to 100 scale, 0 no effect, 100 complete control
# [20] = 31 g ai/ha, Preemergence, 0 to 100 scale where 0 is no effect and 100 is complete control
# [21] = 125 g ai/ha, postemergence, 0 to 100 scale, 0 no effect, 100 complete control
smiles,measurement,setting,value
Fc1ccc(Oc2ncc(Cl)cn2)c(-c2cc(C(F)F)on2)c1F [Compound 113],Galium plant response rating,[1]; [12],80
same,Galium plant response rating,[1]; [13],80
same,"Plant response rating, Galium",[1]; [14],90
same,"Plant response rating, Galium",[1]; [15],90
same,"Plant response rating (scale 0 to 100), Galium","[1]; Preemergence, 125 g ai/ha",90
same,"Plant response rating, Galium",[1]; [16],90
same,"Plant response rating, Galium",[1]; [17],90
same,"Plant response rating, Galium",[1]; [18],98
same,Corn plant response rating,corn (Zea mays); [12],5
same,Corn plant response rating,corn (Zea mays); [13],10
same,"Plant response rating, Corn",corn (Zea mays); [14],20
same,"Plant response rating, Corn",corn (Zea mays); [15],25
same,"Plant response rating (scale 0 to 100), Corn","corn (Zea mays); Preemergence, 125 g ai/ha",40
same,"Plant response rating, Corn",corn (Zea mays); [16],0
same,"Plant response rating, Corn",corn (Zea mays); [17],0
same,"Plant response rating, Corn",corn (Zea mays); [18],25
same,"Ryegrass, Italian plant response rating",[2]; [12],5
same,"Ryegrass, Italian plant response rating",[2]; [13],5
same,"Plant response rating, Ryegrass, Italian",[2]; [14],5
same,"Plant response rating, Ryegrass, Italian",[2]; [15],5
same,"Plant response rating (scale 0 to 100), Ryegrass, Italian","[2]; Preemergence, 125 g ai/ha",70
same,"Plant response rating, Ryegrass, Italian",[2]; [16],5
same,"Plant response rating, Ryegrass, Italian",[2]; [17],10
same,"Plant response rating, Ryegrass, Italian",[2]; [18],60
same,Oilseed Rape plant response rating,[3]; [12],80
same,Oilseed Rape plant response rating,[3]; [13],50
same,"Plant response rating, Oilseed Rape",[3]; [14],90
same,"Plant response rating, Oilseed Rape",[3]; [15],90
same,"Plant response rating (scale 0 to 100), Oilseed Rape","[3]; Preemergence, 125 g ai/ha",100
same,"Plant response rating, Oilseed Rape",[3]; [16],98
same,"Plant response rating, Oilseed Rape",[3]; [17],100
same,"Plant response rating, Oilseed Rape",[3]; [18],100
same,Wheat plant response rating,[4]; [12],0
same,Wheat plant response rating,[4]; [13],0
same,"Plant response rating, Wheat",[4]; [14],5
same,"Plant response rating, Wheat",[4]; [15],5
same,"Plant response rating (scale 0 to 100), Wheat","[4]; Preemergence, 125 g ai/ha",20
same,"Plant response rating, Wheat",[4]; [16],0
same,"Plant response rating, Wheat",[4]; [17],5
same,"Plant response rating, Wheat",[4]; [18],10
same,Velvetleaf plant response rating,[5]; [12],60
same,Velvetleaf plant response rating,[5]; [13],60
same,"Plant response rating, Velvetleaf",[5]; [14],70
same,"Plant response rating, Velvetleaf",[5]; [15],70
same,"Plant response rating (scale 0 to 100), Velvetleaf","[5]; Preemergence, 125 g ai/ha",100
same,"Plant response rating, Velvetleaf",[5]; [16],70
same,"Plant response rating, Velvetleaf",[5]; [17],85
same,"Plant response rating, Velvetleaf",[5]; [18],100
same,Lambsquarters plant response rating,[6]; [12],70
same,Lambsquarters plant response rating,[6]; [13],85
same,"Plant response rating, Lambsquarters",[6]; [14],95
same,"Plant response rating, Lambsquarters",[6]; [15],90
same,"Plant response rating (scale 0 to 100), Lambsquarters","[6]; Preemergence, 125 g ai/ha",98
same,"Plant response rating, Lambsquarters",[6]; [16],85
same,"Plant response rating, Lambsquarters",[6]; [17],98
same,"Plant response rating, Lambsquarters",[6]; [18],98
same,Barnyardgrass plant response rating,[7],0
same,Ducksalad plant response rating,[8],95
same,Rice plant response rating,rice (Oryza sativa),15
same,"Sedge, Umbrella plant response rating",[9],95
same,"Plant response rating, Kochia",kochia (Kochia scoparia); [19],100
same,"Plant response rating, Kochia",kochia (Kochia scoparia); [20],100
same,"Plant response rating, Kochia",kochia (Kochia scoparia); [21],100
same,"Plant response rating, Kochia","kochia (Kochia scoparia); Preemergence, 125 g ai/ha, 0 to 100 scale where 0 is no effect and 100 is complete control",100
same,"Plant response rating, Ryegrass, Italian",[10]; [19],20
same,"Plant response rating, Ryegrass, Italian",[10]; [20],10
same,"Plant response rating, Ryegrass, Italian",[10]; [21],70
same,"Plant response rating, Ragweed",[11]; [19],50
same,"Plant response rating, Ragweed",[11]; [20],30
same,"Plant response rating, Ragweed",[11]; [21],80
